target: T1, human TLR7 (Homo sapiens, UniProt Q9NYK1); assay: Human TLR7 assay (SEAP reporter in HEK293 cells); type: cell-based; conditions: SEAP induction in HEK293 cells expressing human TLR7, overnight incubation at 37° C., 0.1% DMSO
T1 construct: expressed in transfected cells; host or cells: HEK293 cell line stably expressing the pNiFty2-SEAP reporter plasmid; TLR7 in pUNO vector, blasticidin selection
T1 sequence (Q9NYK1 27-1049): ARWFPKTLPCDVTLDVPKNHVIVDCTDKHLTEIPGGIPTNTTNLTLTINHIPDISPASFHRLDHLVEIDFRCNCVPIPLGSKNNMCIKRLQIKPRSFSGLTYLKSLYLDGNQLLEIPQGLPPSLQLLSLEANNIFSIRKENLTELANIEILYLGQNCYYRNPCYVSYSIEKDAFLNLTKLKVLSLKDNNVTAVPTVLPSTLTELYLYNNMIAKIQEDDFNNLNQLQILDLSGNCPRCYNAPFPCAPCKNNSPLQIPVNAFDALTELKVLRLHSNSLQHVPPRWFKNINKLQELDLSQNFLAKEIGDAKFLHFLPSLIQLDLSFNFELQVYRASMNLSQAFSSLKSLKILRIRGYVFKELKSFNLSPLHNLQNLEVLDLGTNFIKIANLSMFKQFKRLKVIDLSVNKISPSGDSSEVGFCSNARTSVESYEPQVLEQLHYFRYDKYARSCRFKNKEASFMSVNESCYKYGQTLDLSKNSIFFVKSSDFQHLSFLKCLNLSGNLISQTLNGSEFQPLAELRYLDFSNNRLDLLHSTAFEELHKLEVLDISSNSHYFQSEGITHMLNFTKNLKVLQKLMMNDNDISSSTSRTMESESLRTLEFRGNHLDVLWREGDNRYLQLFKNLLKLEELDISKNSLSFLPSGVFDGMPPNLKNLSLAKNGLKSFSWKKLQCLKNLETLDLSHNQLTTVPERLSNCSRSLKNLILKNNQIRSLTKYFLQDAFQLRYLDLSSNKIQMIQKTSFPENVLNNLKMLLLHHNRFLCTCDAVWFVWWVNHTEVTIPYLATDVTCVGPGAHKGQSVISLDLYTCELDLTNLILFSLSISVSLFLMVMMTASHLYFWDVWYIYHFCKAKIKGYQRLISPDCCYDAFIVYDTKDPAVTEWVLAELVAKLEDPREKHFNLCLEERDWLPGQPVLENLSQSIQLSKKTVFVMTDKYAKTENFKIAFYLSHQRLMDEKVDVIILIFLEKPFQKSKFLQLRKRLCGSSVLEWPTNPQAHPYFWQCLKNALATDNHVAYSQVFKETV

EC50 | SMILES
200 nM | CCCCc1nc2c(N)nc3ccccc3c2n1CCCN(Cc1cccc(CC(=O)OC)c1)C(=O)CN1CCC(OC)CC1 [Example 51, Methyl 2-(3-((N-(3-(4-amino-2-butyl-1H-imidazo[4,5-c]quinolin-1-yl)propyl)-2-(4-methoxypiperidin-1-yl)acetamido)methyl)phenyl)acetate]
631 nM | CCCCc1nc2c(N)nc3ccccc3c2n1CCCN(Cc1cccc(CC(=O)OC)c1)C(=O)CN1CCC(C(=O)N(C)C)CC1 [Example 52, Methyl 2-(3-((N-(3-(4-amino-2-butyl-1H-imidazo[4,5-c]quinolin-1-yl)propyl)-2-(4-(dimethylcarbamoyl)piperidin-1-yl)acetamido)methyl)phenyl)acetate]
794 nM | CCCCc1nc2c(N)nc3ccccc3c2n1CCCN(Cc1cccc(CC(=O)OC)c1)C(=O)CN1CCOCC1 [Example 53, Methyl 2-(3-((N-(3-(4-amino-2-butyl-1H-imidazo[4,5-c]quinolin-1-yl)propyl)-2-morpholinoacetamido)methyl)phenyl)acetate]
1000 nM | CCCCc1nc2c(N)nc3ccccc3c2n1CCCN(Cc1cccc(CC(=O)OC)c1)C(=O)CN1C[C@@H](C)O[C@@H](C)C1 [Example 54, Methyl 2-(3-((N-(3-(4-amino-2-butyl-1H-imidazo[4,5-c]quinolin-1-yl)propyl)-2-((2S,6R)-2,6-dimethylmorpholino)acetamido)methyl)phenyl)acetate]
79.4 nM | CCCCc1nc2c(N)nc3ccccc3c2n1CCCN(Cc1cccc(CC(=O)OC)c1)C(=O)CN1CCN(C)CC1 [Example 55, Methyl 2-(3-((N-(3-(4-amino-2-butyl-1H-imidazo[4,5-c]quinolin-1-yl)propyl)-2-(4-methylpiperazin-1-yl)acetamido)methyl)phenyl)acetate]
501 nM | CCCCc1nc2c(N)nc3ccccc3c2n1CCCN(Cc1cccc(CC(=O)OC)c1)C(=O)CN1CCN(CCO)CC1 [Example 56, Methyl 2-(3-((N-(3-(4-amino-2-butyl-1H-imidazo[4,5-c]quinolin-1-yl)propyl)-2-(4-(2-hydroxyethyl)piperazin-1-yl)acetamido)methyl)phenyl)acetate]
50.1 nM | CCCCc1nc2c(N)nc3ccccc3c2n1CCCN(Cc1cccc(CC(=O)OC)c1)C(=O)CN1CCN(CCOC)CC1 [Example 57, Methyl 2-(3-((N-(3-(4-amino-2-butyl-1H-imidazo[4,5-c]quinolin-1-yl)propyl)-2-(4-(2-methoxyethyl)piperazin-1-yl)acetamido)methyl)phenyl)acetate]
1260 nM | CCCCc1nc2c(N)nc3ccccc3c2n1CCCN(Cc1cccc(CC(=O)OC)c1)C(=O)CN1CCN(C(C)=O)CC1 [Example 58, Methyl 2-(3-((2-(4-acetylpiperazin-1-yl)-N-(3-(4-amino-2-butyl-1H-imidazo[4,5-c]quinolin-1-yl)propyl)acetamido)methyl)phenyl)acetate]
794 nM | CCCCc1nc2c(N)nc3ccccc3c2n1CCCN(Cc1cccc(CC(=O)OC)c1)C(=O)CN1CCN(S(C)(=O)=O)CC1 [Example 59, Methyl 2-(3-((N-(3-(4-amino-2-butyl-1H-imidazo[4,5-c]quinolin-1-yl)propyl)-2-(4-(methylsulfonyl)piperazin-1-yl)acetamido)methyl)phenyl)acetate]
79.4 nM | CCCCc1nc2c(N)nc3ccccc3c2n1CCCN(Cc1cccc(CC(=O)OC)c1)C(=O)CN1CCCCCC1 [Example 60, Methyl 2-(3-((N-(3-(4-amino-2-butyl-1H-imidazo[4,5-c]quinolin-1-yl)propyl)-2-(azepan-1-yl)acetamido)methyl)phenyl)acetate]
398 nM | CCCCc1nc2c(N)nc3ccccc3c2n1CCCN(Cc1cccc(CC(=O)OC)c1)C(=O)CN1CCCOCC1 [Example 61, Methyl 2-(3-((N-(3-(4-amino-2-butyl-1H-imidazo[4,5-c]quinolin-1-yl)propyl)-2-(1,4-oxazepan-4-yl)acetamido)methyl)phenyl)acetate]
251 nM | CCCCc1nc2c(N)nc3ccccc3c2n1CCCN(Cc1cccc(CC(=O)OC)c1)C(=O)CN1CCCN(C)CC1 [Example 62, Methyl 2-(3-((N-(3-(4-amino-2-butyl-1H-imidazo[4,5-c]quinolin-1-yl)propyl)-2-(4-methyl-1,4-diazepan-1-yl)acetamido)methyl)phenyl)acetate]
501 nM | CCCCc1nc2c(N)nc3ccccc3c2n1CCCN(Cc1cccc(CC(=O)OC)c1)C(=O)CN1CCCN(C(C)=O)CC1 [Example 63, Methyl 2-(3-((2-(4-acetyl-1,4-diazepan-1-yl)-N-(3-(4-amino-2-butyl-1H-imidazo[4,5-c]quinolin-1-yl)propyl)acetamido)methyl)phenyl)acetate]
1260 nM | CCCCc1nc2c(N)nc3ccccc3c2n1CCCN(Cc1cccc(CC(=O)OC)c1)C(=O)CN1CCCN(C(=O)NCC)CC1 [Example 64, Methyl 2-(3-((N-(3-(4-amino-2-butyl-1H-imidazo[4,5-c]quinolin-1-yl)propyl)-2-(4-(ethylcarbamoyl)-1,4-diazepan-1-yl)acetamido)methyl)phenyl)acetate]
631 nM | CCCCc1nc2c(N)nc3ccccc3c2n1CCCN(Cc1cccc(CC(=O)OC)c1)C(=O)CN1CCCN(S(C)(=O)=O)CC1 [Example 65, Methyl 2-(3-((N-(3-(4-amino-2-butyl-1H-imidazo[4,5-c]quinolin-1-yl)propyl)-2-(4-(methylsulfonyl)-1,4-diazepan-1-yl)acetamido)methyl)phenyl)acetate]
158 nM | CCCCc1nc2c(N)nc3ccccc3c2n1CCCN(Cc1ccc(CC(=O)OC)cc1)C(=O)CN1CCN(CCOC)CC1 [Example 66, Methyl 2-(4-((N-(3-(4-amino-2-butyl-1H-imidazo[4,5-c]quinolin-1-yl)propyl)-2-(4-(2-methoxyethyl)piperazin-1-yl)acetamido)methyl)phenyl)acetate]
501 nM | CCCCc1nc2c(N)nc3ccccc3c2n1CCCN(Cc1ccc(CC(=O)OC)cc1)C(=O)CN1CCCN(C(C)=O)CC1 [Example 67, Methyl 2-(4-((2-(4-acetyl-1,4-diazepan-1-yl)-N-(3-(4-amino-2-butyl-1H-imidazo[4,5-c]quinolin-1-yl)propyl)acetamido)methyl)phenyl)acetate]
501 nM | CCCCc1nc2c(N)nc3ccccc3c2n1CCCN(Cc1ccc(CC(=O)OC)cc1)C(=O)CN1CCCN(S(C)(=O)=O)CC1 [Example 68, Methyl 2-(4-((N-(3-(4-amino-2-butyl-1H-imidazo[4,5-c]quinolin-1-yl)propyl)-2-(4-(methylsulfonyl)-1,4-diazepan-1-yl)acetamido)methyl)phenyl)acetate]
398 nM | CCCCc1nc2c(N)nc3ccccc3c2n1CCCN(Cc1ccc(CC(=O)OC)cc1)C(=O)CN(C)C1CCN(C(C)=O)CC1 [Example 69, Methyl 2-(4-((2-((1-acetylpiperidin-4-yl)(methyl)amino)-N-(3-(4-amino-2-butyl-1H-imidazo[4,5-c]quinolin-1-yl)propyl)acetamido)methyl)phenyl)acetate]
398 nM | COCCc1nc2c(N)nc3ccccc3c2n1CCCN(Cc1ccc(CC(=O)OC)cc1)C(=O)CN1CCN(C)CC1 [Example 70, Methyl 2-(4-((N-(3-(4-amino-2-(2-methoxyethyl)-1H-imidazo[4,5-c]quinolin-1-yl)propyl)-2-(4-methylpiperazin-1-yl)acetamido)methyl)phenyl)acetate]
